According to patent US7713994B2 (Wyeth LLC, priority 2005, dated 2010):

target: T1, cyclin D1/cdk 4 enzyme (Homo sapiens, UniProt P11802); assay: CDK4 ELISA kinase assay (phospho-Rb ser 795 detection); type: biochemical; conditions: In Vitro Enzyme Assay, cyclin D1/cdk 4, read-out: CDK4 IC50
T1 construct: made in house; host or cells: Sf9 insect cells, recombinant baculovirus
Description: • 1. High-binding ELISA microtiter plates (Costar) were coated with 40 μl of the kinase substrate (GST fusion of C-terminal fragment of the retinoblastoma susceptibility gene product) diluted to 10 μg/ml in tris-buffered saline (TBS), overnight at 4° C. • 2. Non-specific binding sites were blocked for 1 hour at 4° C. with Superblock in TBS (Pierce), and the plates rinsed with water. • 3. For the screen, 1.5 μl of test compound (200 μg/ml stock in 20% DMSO/20 mM HEPES, pH 7.5) was added to each well. Final dose of the test compound in the assay was 10 ug/ml. […] The kinase reaction (30 μl) was dispensed into each well. Reactions contained 200 μM ATP, 0.5 mg/ml bovine serum albumin (BSA; Sigma), and 0.5 μl partially purified cyclin D1/cdk 4 enzyme*. The enzyme complex is expressed in insect cells (Sf9) infected with recombinant baculovirus and partially purified using ammonium sulfate fractionation. Reaction volumes were adjusted to 30 μl with kinase assay buffer (50 mM HEPES, pH 7.5, 10 mM MgCl2, 5% glycerol, 10 mM 2-mercaptoethanol). • *: For CDK2 assay, 1.0 μl cyclin E/CDK2 enzyme (diluted 1:1000 in kinase assay buffer) was used. The enzyme is isolated from insect cells (Sf9) infected with recombinant baculovirus and partially purified using ammonium sulfate fractionation. For CDK1 assay, 0.08 μl cyclin B/CDK1 enzyme [New England BioLabs; the enzyme is isolated from insect cells (Sf9) infected with recombinant baculovirus carrying human cdc 2 and human cyclin B] was used.
[…] • 5. Plates were incubated at 30° C. for 1 hour. • 6. The reaction mixture was removed by aspiration and replaced with 250 μl TBS containing 0.1% Tween-20 and 5% nonfat dry milk (blocking buffer). The plates were incubated at 4° C. for 1 hour. • 7. The blocking buffer was removed and replaced with 50 μl of the primary antibody [anti-phospho-Rb ser 795 (New England BioLabs) diluted 1:1000 in blocking buffer]. Incubation was at 4° C. for 16-20 hours. • 8. The wells were rinsed 3 times with 250 μl of TBS containing 0.1% Tween-20 followed by the addition of 50 μl of secondary antibody [anti-rabbit IgG conjugated to horseradish peroxidase (Amersham Life Science) diluted 1:1000 in blocking buffer]. • 9. After a 1 hour incubation at room temperature, the wells were rinsed 3 times with 250 μl of TBS/0.1% Tween 20. • 10. TMB (3,3′,5,5′-tetramethylbenzidine dihydrochloride) substrate solution (100 μl; Pierce) was added to each well and the color development reaction allowed to proceed 5-10 minutes at room temperature with shaking. The reaction was stopped by the addition of 2N sulfuric acid (100 μl) and the absorbance values read at 450 nm in a microplate reader (Molecular Devices). Analysis of Results: • 1. The percentage of the absorbance value in wells containing the test compound relative to control wells (no test agent) was determined. • 2. IC50 values of selected compounds were determined from inhibition curves, after subtracting background values (no substrate).

T1 sequence (P11802 whole entry, species assumed): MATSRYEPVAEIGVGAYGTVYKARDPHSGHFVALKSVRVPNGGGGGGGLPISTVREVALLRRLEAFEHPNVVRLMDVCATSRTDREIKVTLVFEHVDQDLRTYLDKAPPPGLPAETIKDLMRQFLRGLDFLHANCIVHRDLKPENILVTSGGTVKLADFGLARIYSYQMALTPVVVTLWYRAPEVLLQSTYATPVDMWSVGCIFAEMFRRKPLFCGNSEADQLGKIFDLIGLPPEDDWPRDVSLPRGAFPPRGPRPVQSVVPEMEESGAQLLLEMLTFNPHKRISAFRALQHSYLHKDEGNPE
T1 sequence (P24385 whole entry partner, species assumed): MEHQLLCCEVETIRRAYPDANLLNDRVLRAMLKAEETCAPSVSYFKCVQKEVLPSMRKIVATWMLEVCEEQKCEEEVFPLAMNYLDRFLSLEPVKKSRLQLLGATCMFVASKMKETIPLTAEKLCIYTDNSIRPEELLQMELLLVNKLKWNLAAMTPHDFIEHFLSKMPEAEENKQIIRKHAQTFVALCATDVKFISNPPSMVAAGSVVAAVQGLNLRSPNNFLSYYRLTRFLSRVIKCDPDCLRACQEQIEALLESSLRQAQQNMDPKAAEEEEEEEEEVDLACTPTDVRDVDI

SMILES	IC50 [µM]
CC(C)S(=O)(=O)Nc1cccc(CNC=C2C(=O)NC(=O)c3ccccc32)c1 [Example 580, Propane-2-sulfonic acid (3-{[(1,3-dioxo-2,3-dihydro-1H-isoquinolin-4-ylidenemethyl)-amino]-methyl}-phenyl)-amide]	48.7
O=C1NC(=O)c2ccccc2C1=CNCc1cccc(NS(=O)(=O)CC(F)(F)F)c1 [Example 582, 2,2,2-Trifluoro-ethanesulfonic acid (3-{[(1,3-dioxo-2,3-dihydro-1H-isoquinolin-4-ylidenemethyl)-amino]-methyl}-phenyl)-amide]	9.6
CCCS(=O)(=O)Nc1cccc(CNC=C2C(=O)NC(=O)c3ccccc32)c1 [Example 584, Propane-1-sulfonic acid (3-{[(1,3-dioxo-2,3-dihydro-1H-isoquinolin-4-ylidenemethyl)-amino]-methyl}-phenyl)-amide]	19.4
CC(=O)Nc1cccc(CNC=C2C(=O)NC(=O)c3ccccc32)c1 [Example 585, N-(3-{[(1,3-Dioxo-2,3-dihydro-1H-isoquinolin-4-ylidenemethyl)-amino]-methyl)-phenyl)-acetamide]	42.5
O=C1NC(=O)c2ccccc2C1=CNCc1cccc(NC(=O)C2CC2)c1 [Example 586, Cyclopropanecarboxylic acid (3-{[(1,3-dioxo-2,3-dihydro-1H-isoquinolin-4-ylidenemethyl)-amino]-methyl}-phenyl)-amide]	31.3
O=C1NC(=O)c2ccccc2C1=CNCc1cccc(NC(=O)C2CCC2)c1 [Example 587, Cyclobutanecarboxylic acid (3-{[(1,3-dioxo-2,3-dihydro-1H-isoquinolin-4-ylidenemethyl)-amino]-methyl}-phenyl)-amide]	43.5
CCN1CCN(c2ccc(NC=C3C(=O)NC(=O)c4ccccc43)cc2)CC1 [Example 595, 4-{[4-(4-Ethyl-piperazin-1-yl)-phenylamino]-methylene}-4H-isoquinoline-1,3-dione]	27.4
N#CCN1CCN(c2ccc(N/C=C3\C(=O)NC(=O)c4ccccc43)cc2)CC1 [Example 596, (4-{4-[(1,3-Dioxo-2,3-dihydro-1H-isoquinolin-4-ylidenemethyl)-amino]-phenyl}-piperazin-1-yl)-acetonitrile]	27.7
C=CCN1CCN(c2ccc(NC=C3C(=O)NC(=O)c4ccccc43)cc2)CC1 [Example 597, 4-{[4-(4-Allyl-piperazin-1-yl)-phenylamino]-methylene}-4H-isoquinoline-1,3-dione]	39.2

Further lines, results first:

IC50 [µM]	SMILES
23.6	CS(=O)(=O)Nc1cccc(CNC=C2C(=O)NC(=O)c3ccccc32)c1 [Example 581, N-(3-{[(1,3-Dioxo-2,3-dihydro-1H-isoquinolin-4-ylidenemethyl)-amino]-methyl}-phenyl)-methanesulfonamide]
17.9	CCS(=O)(=O)Nc1cccc(CNC=C2C(=O)NC(=O)c3ccccc32)c1 [Example 583, Ethanesulfonic acid (3-{[(1,3-dioxo-2,3-dihydro-1H-isoquinolin-4-ylidenemethyl)-amino]-methyl}-phenyl)-amide]
37.3	O=C1NC(=O)c2ccccc2C1=CNCc1ccc(NS(=O)(=O)c2cccs2)cc1 [Example 588, Thiophene-2-sulfonic acid (4-{[(1,3-dioxo-2,3-dihydro-1H-isoquinolin-4-ylidenemethyl)-amino]-methyl}-phenyl)-amide]
36.4	CS(=O)(=O)Nc1ccc(CNC=C2C(=O)NC(=O)c3ccccc32)cc1 [Example 589]
38.5	O=C1NC(=O)c2ccccc2C1=CNCc1ccc(NS(=O)(=O)Cc2ccccc2)cc1 [Example 590, N-(4{[(1,3-Dioxo-2,3-dihydro-1H-isoquinolin-4-ylidenemethyl)-amino]-methyl}-phenyl)-C-phenyl-methanesulfonamide]
29.9	CCCS(=O)(=O)Nc1ccc(CNC=C2C(=O)NC(=O)c3ccccc32)cc1 [Example 592, Propane-1-sulfonic acid (4{[(1,3-dioxo-2,3-dihydro-1H-isoquinolin-4-ylidenemethyl)-amino]-methyl}-phenyl)-amide]
